Data taken from US12239643B2, “Therapeutic agent for inflammatory diseases, autoimmune diseases, fibrotic diseases, and cancer diseases” (MEIJI SEIKA PHARMA CO., LTD., priority 2018, dated 2025).

Key:
[1] = Hepatic metabolic stability (rat liver microsome method); type: in vitro ADME; conditions: rat liver microsomes 0.5 mg/mL, test substance 1 μM, NADPH 1 mM, 37° C., 30 minutes
Description: Metabolic stability in rat liver microsomes was evaluated by the following method. First, in 100 mM of potassium phosphate buffer solution (pH 7.4), liver microsomes (concentration at reaction: 0.5 mg/mL) and the test substance (concentration at reaction: 1 μM) were preincubated at 37° C. Five minutes later, 100 mM of potassium phosphate buffer (pH 7.4) solution of NADPH (concentration at reaction: 1 mM) was mixed thereto to start the reaction. After a predetermined time passed, acetonitrile was mixed to the reaction mixture to stop the reaction. Here, the reaction time was 0 and 30 minutes, and drug concentration measurement was performed for each time period using LC-MS. The % remaining value of the test compound was calculated from the value for 0 minutes and the value for 30 minutes, using the calculation formula below: % Remaining=(Value for 30 Minutes/Value for 0 Minutes)×100
The results of measuring the rat liver microsome metabolic Stability (% remaining for 30-minute reaction) for the test compound by the above method were evaluated in accordance with the following evaluated basis; A: a % remaining rate of 75% or more, B: 60% or more and less than 75%, C: 45% or more and less than 60%, and D: less than 45%.

PDE4 = test: Evaluation of PDE4 inhibitory activity, scintillation proximity assay; type: biochemical; conditions: scintillation proximity assay; read-out: PDE4 Inhibitory Activity (Evaluation 1; concentration for the inhibition rate of 50%)
Summary of the method: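 SPA with [2,8-3H]-cAMP and diluted PDE4 enzyme preparation in 50 mM Tris-HCl pH 7.4, 8.3 mM MgCl2, 1.7 mM EGTA, 3 mg/mL BSA, 120 min at room temperature. Product captured on ZnSO4-containing YSi-SPA beads, scintillation counted; IC50 from inhibition curves vs DMSO control and no-enzyme blank.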

SMILES | Residual ratio (% remaining for 30-minute reaction) [1] | IC50 (PDE4)
OCc1ccc(Oc2ccc(-c3nccs3)c3oc(N4CC5CC(C4)N5)nc23)nc1 [Example 341, (6-((2-(3,6-Diazabicyclo[3.1.1]heptan-3-yl)-7-(thiazol-2-yl)benzo[d]oxazol-4-yl)oxy)pyridin-3-yl)methanol] | A (A: a % remaining rate of 75% or more) | < 100 nM
OCc1cnc(Oc2ccc(-c3nccs3)c3oc(N4CC5CC(C4)N5)nc23)c(C(F)(F)F)c1 [Example 342, (6-((2-(3,6-Diazabicyclo[3.1.1]heptan-3-yl)-7-(thiazol-2-yl)benzo[d]oxazol-4-yl)oxy)-5-(trifluoromethyl)pyridin-3-yl)methanol] | B (B: 60% or more and less than 75%) | < 100 nM
FC(F)(F)Oc1ccc(Oc2ccc(-c3nccs3)c3oc(N4CC5CC(C4)N5)nc23)nc1 [Example 343, 2-(3,6-Diazabicyclo[3.1.1]heptan-3-yl)-7-(thiazol-2-yl)-4-((5-(trifluoromethoxy)pyridin-2-yl)oxy)benzo[d]oxazole] | B (B: 60% or more and less than 75%) | < 100 nM
C[S+]([O-])c1ccc(-c2nccs2)c2oc(N3CC4CC(C3)N4)nc12 (centres unmarked) [Example 346, 2-(3,6-Diazabicyclo[3.1.1]heptan-3-yl)-4-(methylsulfinyl)-7-(thiazol-2-yl)benzo[d]oxazole] | A (A: a % remaining rate of 75% or more) | < 100 nM
CS(=O)(=O)c1ccc(-c2nccs2)c2oc(N3CC4CC(C3)N4)nc12 [Example 347, 2-(3,6-Diazabicyclo[3.1.1]heptan-3-yl)-4-(methylsulfonyl)-7-(thiazol-2-yl)benzo[d]oxazole] | A (A: a % remaining rate of 75% or more) | < 100 nM
OCCSc1ccc(-c2nccs2)c2oc(N3CC4CC(C3)N4)nc12 [Example 348, 2-((2-(3,6-Diazabicyclo[3.1.1]heptan-3-yl)-7-(thiazol-2-yl)benzo[d]oxazol-4-yl)thio)ethan-1-ol] | B (B: 60% or more and less than 75%) | < 100 nM
[O-][S+](CCO)c1ccc(-c2nccs2)c2oc(N3CC4CC(C3)N4)nc12 (centres unmarked) [Example 349, 2-((2-(3,6-Diazabicyclo[3.1.1]heptan-3-yl)-7-(thiazol-2-yl)benzo[d]oxazol-4-yl)sulfinyl)ethan-1-ol] | A (A: a % remaining rate of 75% or more) | < 100 nM
O=S(=O)(CCO)c1ccc(-c2nccs2)c2oc(N3CC4CC(C3)N4)nc12 [Example 350, 2-((2-(3,6-Diazabicyclo[3.1.1]heptan-3-yl)-7-(thiazol-2-yl)benzo[d]oxazol-4-yl)sulfonyl)ethan-1-ol] | A (A: a % remaining rate of 75% or more) | < 100 nM
CS(=O)(=O)c1ccc(Oc2ccc(-c3nccs3)c3oc(N4CC5CC(C4)N5)nc23)nc1 [Example 352, 2-(3,6-Diazabicyclo[3.1.1]heptan-3-yl)-4-((5-(methylsulfonyl)pyridin-2-yl)oxy)-7-(thiazol-2-yl)benzo[d]oxazole] | A (A: a % remaining rate of 75% or more) | < 100 nM
COCCNC(=O)c1ccc(-c2nccs2)c2oc(N3CC4CC(C3)N4)nc12 [Example 353, 2-(3,6-Diazabicyclo[3.1.1]heptan-3-yl)-N-(2-methoxyethyl)-7-(thiazol-2-yl)benzo[d]oxazole-4-carboxamide] | A (A: a % remaining rate of 75% or more) | < 100 nM
NC(=O)c1ccc(-c2nccs2)c2oc(N3CC4CC(C3)N4)nc12 [Example 354, 2-(3,6-Diazabicyclo[3.1.1]heptan-3-yl)-7-(thiazol-2-yl)benzo[d]oxazole-4-carboxamide] | A (A: a % remaining rate of 75% or more) | < 100 nM
O=C(NCCO)c1ccc(-c2nccs2)c2oc(N3CC4CC(C3)N4)nc12 [Example 355, 2-(3,6-Diazabicyclo[3.1.1]heptan-3-yl)-N-(2-hydroxyethyl)-7-(thiazol-2-yl)benzo[d]oxazole-4-carboxamide] | A (A: a % remaining rate of 75% or more) | < 100 nM
CN(CCO)C(=O)c1ccc(-c2nccs2)c2oc(N3CC4CC(C3)N4)nc12 [Example 356, 2-(3,6-Diazabicyclo[3.1.1]heptan-3-yl)-N-(2-hydroxyethyl)-N-methyl-7-(thiazol-2-yl)benzo[d]oxazole-4-carboxamide] | A (A: a % remaining rate of 75% or more) | 100 to 1000 nM
O=C(NC1CC1)c1ccc(-c2nccs2)c2oc(N3CC4CC(C3)N4)nc12 [Example 357, 2-(3,6-Diazabicyclo[3.1.1]heptan-3-yl)-N-cyclopropyl-7-(thiazol-2-yl)benzo[d]oxazole-4-carboxamide] | A (A: a % remaining rate of 75% or more) | < 100 nM
CCNC(=O)c1ccc(-c2nccs2)c2oc(N3CC4CC(C3)N4)nc12 [Example 358, 2-(3,6-Diazabicyclo[3.1.1]heptan-3-yl)-N-ethyl-7-(thiazol-2-yl)benzo[d]oxazole-4-carboxamide] | A (A: a % remaining rate of 75% or more) | < 100 nM
O=C(c1ccc(-c2nccs2)c2oc(N3CC4CC(C3)N4)nc12)N1CCOCC1 [Example 359, (2-(3,6-Diazabicyclo[3.1.1]heptan-3-yl)-7-(thiazol-2-yl)benzo[d]oxazol-4-yl) (morpholino)methanone] | A (A: a % remaining rate of 75% or more) | 100 to 1000 nM
O=C(c1ccc(-c2nccs2)c2oc(N3CC4CC(C3)N4)nc12)N1CCCC1 [Example 360, (2-(3,6-Diazabicyclo[3.1.1]heptan-3-yl)-7-(thiazol-2-yl)benzo[d]oxazol-4-yl) (pyrrolidin-1-yl)methanone] | A (A: a % remaining rate of 75% or more) | 100 to 1000 nM
CC(C)(O)C(F)(F)Oc1ccc(-c2ccc(Cl)cn2)c2oc(N3CC4CC(C3)N4)nc12 [Example 363, 1-((2-(3,6-Diazabicyclo[3.1.1]heptan-3-yl)-7-(5-chloropyridin-2-yl)benzo[d]oxazol-4-yl)oxy)-1,1-difluoro-2-methylpropan-2-ol] | A (A: a % remaining rate of 75% or more) | < 100 nM
c1csc(-c2ccc(N3CCOCC3)c3nc(N4CC5CC(C4)N5)oc23)n1 [Example 369, 2-(3,6-Diazabicyclo[3.1.1]heptan-3-yl)-4-morpholino-7-(thiazol-2-yl)benzo[d]oxazole] | B (B: 60% or more and less than 75%) | < 100 nM
OCC(O)C(F)(F)Oc1ccc(-c2nccs2)c2oc(N3CC4CC(C3)N4)nc12 (centres unmarked) [Example 370, 3-((2-(3,6-Diazabicyclo[3.1.1]heptan-3-yl)-7-(thiazol-2-yl)benzo[d]oxazol-4-yl)oxy)-3,3-difluoropropane-1,2-diol] | A (A: a % remaining rate of 75% or more) | < 100 nM
OCC(F)(F)Oc1ccc(-c2nccs2)c2oc(N3CC4CC(C3)N4O)nc12 [Example 374, 3-(4-(1,1-Difluoro-2-hydroxyethoxy)-7-(thiazol-2-yl)benzo[d]oxazol-2-yl)-3,6-diazabicyclo[3.1.1]heptan-6-ol] | B (B: 60% or more and less than 75%) | < 100 nM
OCc1cccnc1Oc1ccc(-c2nccs2)c2oc(N3CC4CC(C3)N4)nc12 [Example 376, (2-((2-(3,6-Diazabicyclo[3.1.1]heptan-3-yl)-7-(thiazol-2-yl)benzo[d]oxazol-4-yl)oxy)pyridin-3-yl)methanol] | A (A: a % remaining rate of 75% or more) | < 100 nM
c1cc(-c2nccs2)c2oc(N3CC4CC(C3)N4)nc2c1 [Example 382, 2-(3,6-Diazabicyclo[3.1.1]heptan-3-yl)-7-(thiazol-2-yl)benzo[d]oxazole] | B (B: 60% or more and less than 75%) | < 100 nM
O=S(=O)(NCCO)c1ccc(-c2nccs2)c2oc(N3CC4CC(C3)N4)nc12 [Example 385, 2-(3,6-Diazabicyclo[3.1.1]heptan-3-yl)-N-(2-hydroxyethyl)-7-(thiazol-2-yl)benzo[d]oxazole-4-sulfonamide] | A (A: a % remaining rate of 75% or more) | < 100 nM
COCCNS(=O)(=O)c1ccc(-c2nccs2)c2oc(N3CC4CC(C3)N4)nc12 [Example 387, 2-(3,6-Diazabicyclo[3.1.1]heptan-3-yl)-N-(2-methoxyethyl)-7-(thiazol-2-yl)benzo[d]oxazole-4-sulfonamide] | A (A: a % remaining rate of 75% or more) | < 100 nM
